What is called IC50 is the concentration at which inhibition is half-maximal. High values mean weaker potency, low ones greater potency.

The experiment has as its target T1, Mucosa-associated lymphoid tissue lymphoma translocation protein 1 (Homo sapiens, UniProt Q9UDY8).
T1 sequence (Q9UDY8 whole entry): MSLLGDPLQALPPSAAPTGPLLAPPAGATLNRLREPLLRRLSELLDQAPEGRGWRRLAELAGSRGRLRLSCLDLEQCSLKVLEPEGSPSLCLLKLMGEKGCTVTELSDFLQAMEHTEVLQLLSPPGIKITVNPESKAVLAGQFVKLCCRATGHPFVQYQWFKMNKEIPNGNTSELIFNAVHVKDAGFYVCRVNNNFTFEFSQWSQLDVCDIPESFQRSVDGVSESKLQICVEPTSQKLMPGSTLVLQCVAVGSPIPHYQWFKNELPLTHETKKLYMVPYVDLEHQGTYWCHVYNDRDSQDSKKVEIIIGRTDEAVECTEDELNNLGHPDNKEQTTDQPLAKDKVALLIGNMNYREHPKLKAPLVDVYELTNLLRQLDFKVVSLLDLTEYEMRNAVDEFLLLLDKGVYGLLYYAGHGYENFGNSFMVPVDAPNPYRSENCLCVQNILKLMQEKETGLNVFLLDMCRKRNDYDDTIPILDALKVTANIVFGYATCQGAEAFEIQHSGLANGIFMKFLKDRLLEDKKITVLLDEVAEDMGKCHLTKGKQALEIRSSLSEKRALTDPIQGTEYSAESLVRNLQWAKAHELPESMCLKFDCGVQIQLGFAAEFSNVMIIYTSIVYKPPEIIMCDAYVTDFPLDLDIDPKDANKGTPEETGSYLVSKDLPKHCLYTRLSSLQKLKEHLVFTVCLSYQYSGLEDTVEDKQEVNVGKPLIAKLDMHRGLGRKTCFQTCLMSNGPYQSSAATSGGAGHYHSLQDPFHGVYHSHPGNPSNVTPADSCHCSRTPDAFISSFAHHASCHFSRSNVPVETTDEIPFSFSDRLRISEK
Kind of experiment: MALT1 Protease Assay 2. The procedure: Test compounds were dissolved in 100% DMSO at stock of 10 mM, with final DMSO concentration 0.1%. Test compounds were pre-incubated with MALT1 protein for 2 h at room temperature.

Consider `CN(C)C(=O)c1ncc(NC(=O)N2C[C@@](C)(C(F)(F)F)c3c2cnc2cc(Cl)nn32)cc1C(F)F` [US20240018157, Example 122], for which the IC50 was less than 10 nM.
Take `Cc1cc(NC(=O)N2C[C@](C)(C(F)(F)F)c3c2cnc2cc(F)nn32)cnc1-n1nccn1` [US20240018157, Example 124]: the IC50 was greater than 1000 nM.
As for `Cc1cc(NC(=O)N2C[C@@](C)(C(F)(F)F)c3c2cnc2cc(F)nn32)cnc1-n1nccn1` [US20240018157, Example 125], the IC50 was less than 10 nM.
To `C[C@H](O)c1cnn(-c2ncc(NC(=O)N3C[C@@](C)(C(F)(F)F)c4c3cnc3cc(Cl)nn43)cc2C(F)F)n1` [US20240018157, Example 126] belongs less than 10 nM; to `C[C@@H](O)c1cnn(-c2ncc(NC(=O)N3C[C@@](C)(C(F)(F)F)c4c3cnc3cc(Cl)nn43)cc2C(F)F)n1` [US20240018157, Example 127], less than 10 nM.
`C[C@@]1(C(F)F)CN(C(=O)Nc2cnc(-n3nccn3)c(Cl)c2)c2cnc3cc(Cl)nn3c21` [US20240018157, Example 128] came in with a 50% inhibitory concentration (IC50) of less than 10 nM.
For the molecule `C[C@]1(C(F)F)CN(C(=O)Nc2cnc(-n3nccn3)c(Cl)c2)c2cnc3cc(Cl)nn3c21` [US20240018157, Example 129], the IC50 fell in the range of 10 to 100 nM.
To `CO[C@]1(C(F)(F)F)CN(C(=O)Nc2cnc(-n3nccn3)c(Cl)c2)c2cnc3cc(Cl)nn3c21` [US20240018157, Example 135] belongs 100 to 1000 nM; to `CO[C@@]1(C(F)(F)F)CN(C(=O)Nc2cnc(-n3nccn3)c(Cl)c2)c2cnc3cc(Cl)nn3c21` [US20240018157, Example 136], less than 10 nM.
Consider `C[C@]1(C(F)(F)F)CN(C(=O)Nc2cnnc(C(F)F)c2)c2cnc3c(F)c(Cl)nn3c21` [US20240018157, Example 137], for which the IC50 was greater than 1000 nM.
Consider `C[C@@]1(C(F)(F)F)CN(C(=O)Nc2cnnc(C(F)F)c2)c2cnc3c(F)c(Cl)nn3c21` [US20240018157, Example 138], for which the IC50 is 10 to 100 nM.
As to `C[C@]1(C(F)(F)F)CN(C(=O)Nc2cnc(-n3nccn3)c(Cl)c2)c2cnc3c(F)c(F)nn3c21` [US20240018157, Example 139], the IC50 is greater than 1000 nM.
`C[C@@]1(C(F)(F)F)CN(C(=O)Nc2cnc(-n3nccn3)c(Cl)c2)c2cnc3c(F)c(F)nn3c21` [US20240018157, Example 140]: the IC50 was less than 10 nM.
`C[C@]1(C(F)(F)F)CN(C(=O)Nc2cnnc(C(F)F)c2)c2cnc3c(F)c(F)nn3c21` [US20240018157, Example 141] had an IC50 greater than 1000 nM.
To `C[C@@]1(C(F)(F)F)CN(C(=O)Nc2cnnc(C(F)F)c2)c2cnc3c(F)c(F)nn3c21` [US20240018157, Example 142] belongs 10 to 100 nM; to `O=C(Nc1cnnc(C(F)F)c1)N1C[C@@](C2CC2)(C(F)(F)F)c2c1cnc1cc(Cl)nn21` [US20240018157, Example 144], 10 to 100 nM.
In the case of `O=C(Nc1cnnc(C(F)F)c1)N1C[C@](C2CC2)(C(F)(F)F)c2c1cnc1cc(Cl)nn21` [US20240018157, Example 145], the IC50 was in the range of 100 to 1000 nM.
The figure for `C[C@@]1(C(F)(F)F)CN(C(=O)Nc2cnc(-n3nccn3)c(Cl)c2)c2cnc3c(F)cnn3c21` [US20240018157, Example 146] is less than 10 nM; for `C[C@]1(C(F)(F)F)CN(C(=O)Nc2cnc(-n3nccn3)c(Cl)c2)c2cnc3c(F)cnn3c21` [US20240018157, Example 147] it is greater than 1000 nM.
To `C[C@@]1(C(F)(F)F)CN(C(=O)Nc2cnc(C(=O)NC3CC3)c(C(F)F)c2)c2cnc3cc(Cl)nn3c21` [US20240018157, Example 150] belongs less than 10 nM; to `CN(C(=O)c1ncc(NC(=O)N2C[C@@](C)(C(F)(F)F)c3c2cnc2cc(Cl)nn32)cc1C(F)F)C1CC1` [US20240018157, Example 151], less than 10 nM; to `Cc1cn2ncc3c(c2n1)[C@](C)(C(F)(F)F)CN3C(=O)Nc1cnc(-n2nccn2)c(Cl)c1` [US20240018157, Example 152], less than 10 nM.
`Cc1cn2ncc3c(c2n1)[C@@](C)(C(F)(F)F)CN3C(=O)Nc1cnc(-n2nccn2)c(Cl)c1` [US20240018157, Example 153]: the half-maximal inhibitory concentration (IC50) fell in the range of 10 to 100 nM.
To `Cc1nnc(C(F)F)cc1NC(=O)N1C[C@@](C)(C(F)(F)F)c2c1cnc1cc(Cl)nn21` [US20240018157, Example 154] belongs 100 to 1000 nM; to `C[C@]1(C(F)(F)F)CN(C(=O)Nc2cnnc(C(F)F)c2)c2cnc3cc(CC(F)F)nn3c21` [US20240018157, Example 155], 100 to 1000 nM; to `C[C@@]1(C(F)(F)F)CN(C(=O)Nc2cnnc(C(F)F)c2)c2cnc3cc(CC(F)F)nn3c21` [US20240018157, Example 156], greater than 1000 nM.
The figure for `CCc1nn2c3c(cnc2c1N)N(C(=O)Nc1cnc(-n2nccn2)c(Cl)c1)C[C@]3(C)C(F)(F)F` [US20240018157, Example 157] is 100 to 1000 nM; for `CCc1nn2c3c(cnc2c1N)N(C(=O)Nc1cnc(-n2nccn2)c(Cl)c1)C[C@@]3(C)C(F)(F)F` [US20240018157, Example 158] it is greater than 1000 nM; for `Cc1nn2c3c(cnc2c1N)N(C(=O)Nc1cnc(-n2nccn2)c(Cl)c1)C[C@]3(C)C(F)(F)F` [US20240018157, Example 159] it is 10 to 100 nM.
On to `Cc1nn2c3c(cnc2c1N)N(C(=O)Nc1cnc(-n2nccn2)c(Cl)c1)C[C@@]3(C)C(F)(F)F` [US20240018157, Example 160], for which the IC50 is greater than 1000 nM.
Consider `Cc1nnc(C(F)F)cc1NC(=O)N1C[C@@](C)(C(F)(F)F)c2c1cnc1cc(F)nn21` [US20240018157, Example 161], for which the IC50 is 100 to 1000 nM.
Take `CN1CC(n2nc(NC(=O)N3C[C@@](C)(C(F)(F)F)c4c3cnc3cc(Cl)nn43)cc2Cl)C1` [US20240018157, Example 163]: the IC50 was greater than 1000 nM.
Take `C[C@@]1(C(F)(F)F)CN(C(=O)N[C@@H]2CCC(F)(F)C2)c2cnc3cc(Cl)nn3c21` [US20240018157, Example 165]: the IC50 was greater than 1000 nM.
Consider `C[C@@]1(C(F)(F)F)CN(C(=O)N[C@H]2CCC(F)(F)C2)c2cnc3cc(Cl)nn3c21` [US20240018157, Example 166], for which the IC50 was greater than 1000 nM.
The figure for `CN1CCOC(c2ncc(NC(=O)N3C[C@@](C)(C(F)(F)F)c4c3cnc3cc(Cl)nn43)cc2Cl)C1` (some centres undefined) [US20240018157, Example 167] is greater than 1000 nM; for `C[C@@]1(C(F)(F)F)CN(C(=O)Nc2cnc(C3(O)CCC3)c(Cl)c2)c2cnc3cc(Cl)nn3c21` [US20240018157, Example 168] it is greater than 1000 nM; for `CN1CC(Nc2cc(NC(=O)N3C[C@@](C)(C(F)(F)F)c4c3cnc3cc(Cl)nn43)cc(C(F)(F)F)n2)C1` [US20240018157, Example 169] it is greater than 1000 nM.
The figure for `CC1(C)CC(NC(=O)N2C[C@@](C)(C(F)(F)F)c3c2cnc2cc(Cl)nn32)CCO1` (some centres undefined) [US20240018157, Example 170] is greater than 1000 nM; for `C[C@@]1(C(F)(F)F)CN(C(=O)N[C@@H]2CCCC[C@H]2O)c2cnc3cc(Cl)nn3c21` [US20240018157, Example 171] it is greater than 1000 nM.
The figure for `CC1CC(NC(=O)N2C[C@@](C)(C(F)(F)F)c3c2cnc2cc(Cl)nn32)CCO1` (some centres undefined) [US20240018157, Example 173] is greater than 1000 nM; for `C[C@@]1(C(F)(F)F)CN(C(=O)NC2CCC3(CCCO3)CC2)c2cnc3cc(Cl)nn3c21` (some centres undefined) [US20240018157, Example 174] it is greater than 1000 nM.
The molecule `C[C@@]1(C(F)(F)F)CN(C(=O)n2nc(C(F)(F)F)cc2N)c2cnc3cc(Cl)nn3c21` [US20240018157, Example 175] yielded an IC50 greater than 1000 nM.
As for `Cc1cc(NC(=O)N2C[C@@](C)(C(F)(F)F)c3c2cnc2cc(Cl)nn32)nc2c1cnn2C` [US20240018157, Example 176], the IC50 is greater than 1000 nM.
`C[C@@]1(C(F)(F)F)CN(C(=O)n2nc(C(F)F)cc2N)c2cnc3cc(Cl)nn3c21` [US20240018157, Example 177] had an IC50 greater than 1000 nM.
For `CN1CC(Oc2cc(C(F)F)cc(NC(=O)N3C[C@@](C)(C(F)(F)F)c4c3cnc3cc(Cl)nn43)n2)C1` [US20240018157, Example 178], the IC50 is greater than 1000 nM.
`C[C@@]1(C(F)(F)F)CN(C(=O)Nc2cc(C(F)F)ns2)c2cnc3cc(Cl)nn3c21` [US20240018157, Example 179] showed an IC50 greater than 1000 nM.
For the molecule `C[C@@]1(C(F)(F)F)CN(C(=O)Nc2cnc(-n3nccn3)c(C(F)(F)F)c2)c2cnc3cc(F)nn3c21` [US20240018157, Example 181], the IC50 was less than 10 nM.
The figure for `C[C@]1(C(F)(F)F)CN(C(=O)Nc2cnc(-n3nccn3)c(C(F)(F)F)c2)c2cnc3cc(F)nn3c21` [US20240018157, Example 182] is greater than 1000 nM; for `C[C@H](O)c1cnnn1-c1ncc(NC(=O)N2C[C@@](C)(C(F)(F)F)c3c2cnc2cc(Cl)nn32)cc1C(F)F` [US20240018157, Example 184] it is 10 to 100 nM.

These data come from BindingDB's records for patent US20240018157 (Schrödinger, 2024).
